Assay results taken from PubChem BioAssay (NCI).
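Following 48 hours of exposure in 96-well plates, responses at five concentrations were used to interpolate endpoints linearly. GI50 = concentration required for 50% inhibition of growth. TGI: concentration producing complete growth inhibition.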

How the values were obtained:
Test in all cases: DTP human tumour cell line panel, 48 h
HS 578T breast = system: HS 578T breast
HCT-116 colon = system: HCT-116 colon
NCI-H522 lung = system: NCI-H522 lung
MDA-MB-231 breast = system: MDA-MB-231 breast
UACC-62 melanoma = system: UACC-62 melanoma
U251 CNS = system: U251 CNS
SK-MEL-5 melanoma = system: SK-MEL-5 melanoma
SF-295 CNS = system: SF-295 CNS
HCT-15 colon = system: HCT-15 colon
ACHN renal = system: ACHN renal
SF-268 CNS = system: SF-268 CNS
HOP-62 NSCLC = system: HOP-62 NSCLC
CAKI-1 renal = system: CAKI-1 renal
CCRF-CEM leukemia = system: CCRF-CEM leukemia
HCC-2998 colon = system: HCC-2998 colon
OVCAR-3 ovarian = system: OVCAR-3 ovarian
TK-10 renal = system: TK-10 renal
SK-OV-3 ovarian = system: SK-OV-3 ovarian
OVCAR-4 ovarian = system: OVCAR-4 ovarian
NCI/ADR-RES ovarian = system: NCI/ADR-RES ovarian
NCI-H460 lung = system: NCI-H460 lung
T-47D breast = system: T-47D breast
LOX IMVI melanoma = system: LOX IMVI melanoma
SF-539 CNS = system: SF-539 CNS
MCF7 breast = system: MCF7 breast
UO-31 renal = system: UO-31 renal
OVCAR-5 ovarian = system: OVCAR-5 ovarian
COLO 205 colon = system: COLO 205 colon
PC-3 prostate = system: PC-3 prostate
OVCAR-8 ovarian = system: OVCAR-8 ovarian
UACC-257 melanoma = system: UACC-257 melanoma
IGROV1 ovarian = system: IGROV1 ovarian
DU-145 prostate = system: DU-145 prostate
A498 renal = system: A498 renal
NCI-H226 lung = system: NCI-H226 lung
HOP-92 NSCLC = system: HOP-92 NSCLC
MDA-MB-435 = system: MDA-MB-435
BT-549 breast = system: BT-549 breast
786-0 renal = system: 786-0 renal
HL-60(TB) leukemia = system: HL-60(TB) leukemia
MALME-3M melanoma = system: MALME-3M melanoma
NCI-H23 lung = system: NCI-H23 lung
EKVX NSCLC = system: EKVX NSCLC
SK-MEL-28 melanoma = system: SK-MEL-28 melanoma
K-562 leukemia = system: K-562 leukemia
SN12C renal = system: SN12C renal
MDA-MB-468 breast = system: MDA-MB-468 breast
SK-MEL-2 melanoma = system: SK-MEL-2 melanoma
SNB-19 CNS = system: SNB-19 CNS
SW-620 colon = system: SW-620 colon
HT29 colon = system: HT29 colon
RPMI-8226 leukemia = system: RPMI-8226 leukemia
MOLT-4 leukemia = system: MOLT-4 leukemia
M14 melanoma = system: M14 melanoma
SNB-75 CNS = system: SNB-75 CNS
SR leukemia = system: SR leukemia
RXF 393 renal = system: RXF 393 renal
KM12 colon = system: KM12 colon
A549 NSCLC = system: A549 NSCLC

## CCOC(=O)c1ccc(NC(=S)NC(=O)c2ccc(NC(=O)C(C)C)cc2OC)cc1
HS 578T breast
  GI50: 31.7 µM
  TGI: > 100 µM
HCT-116 colon
  GI50: 3.99 µM
  TGI: 51.5 µM
NCI-H522 lung
  GI50: 3.79 µM
  TGI: > 100 µM
MDA-MB-231 breast
  GI50: 16.2 µM
  TGI: 53.2 µM
UACC-62 melanoma
  GI50: 11.7 µM
  TGI: 53.7 µM
U251 CNS
  GI50: 12.3 µM
  TGI: 46 µM
SK-MEL-5 melanoma
  GI50: 2.14 µM
  TGI: 5.79 µM
SF-295 CNS
  GI50: 8.33 µM
  TGI: 45.4 µM
HCT-15 colon
  GI50: 4.24 µM
  TGI: > 100 µM
ACHN renal
  GI50: 26 µM
  TGI: > 100 µM
SF-268 CNS
  GI50: 20.7 µM
  TGI: > 100 µM
HOP-62 NSCLC
  GI50: 22.1 µM
  TGI: 72.3 µM
CAKI-1 renal
  GI50: 17.8 µM
  TGI: 80.8 µM
CCRF-CEM leukemia
  GI50: 2.93 µM
  TGI: 50 µM
HCC-2998 colon
  GI50: 20.3 µM
  TGI: > 100 µM
OVCAR-3 ovarian
  GI50: 15.3 µM
  TGI: > 100 µM
TK-10 renal
  GI50: 22.3 µM
  TGI: 76.6 µM
SK-OV-3 ovarian
  GI50: 35.6 µM
  TGI: > 100 µM
OVCAR-4 ovarian
  GI50: 9.21 µM
  TGI: 71.6 µM
NCI/ADR-RES ovarian
  GI50: 12.6 µM
  TGI: 48.3 µM
NCI-H460 lung
  GI50: 7.17 µM
  TGI: > 100 µM
T-47D breast
  GI50: 2.35 µM
  TGI: 11.2 µM
LOX IMVI melanoma
  GI50: 11.6 µM
  TGI: > 100 µM
SF-539 CNS
  GI50: 27.7 µM
  TGI: > 100 µM
MCF7 breast
  GI50: 3.26 µM
  TGI: 37.2 µM
UO-31 renal
  GI50: 11.3 µM
  TGI: 79.3 µM
OVCAR-5 ovarian
  GI50: 29.7 µM
  TGI: > 100 µM
COLO 205 colon
  GI50: 15.5 µM
  TGI: 42.3 µM
PC-3 prostate
  GI50: 6.41 µM
  TGI: 69.9 µM
OVCAR-8 ovarian
  GI50: 16.4 µM
  TGI: > 100 µM
UACC-257 melanoma
  GI50: 12.5 µM
  TGI: > 100 µM
IGROV1 ovarian
  GI50: 19.3 µM
  TGI: > 100 µM
DU-145 prostate
  GI50: 34.7 µM
  TGI: > 100 µM
A498 renal
  GI50: 28.1 µM
  TGI: > 100 µM
NCI-H226 lung
  GI50: 4.46 µM
  TGI: 36.8 µM
HOP-92 NSCLC
  GI50: 13.8 µM
  TGI: 44.8 µM
MDA-MB-435
  GI50: 15.2 µM
  TGI: > 100 µM
BT-549 breast
  GI50: 1.97 µM
  TGI: 6.52 µM
786-0 renal
  GI50: 21.9 µM
  TGI: 60.4 µM
HL-60(TB) leukemia
  GI50: 2.45 µM
  TGI: 25.2 µM
MALME-3M melanoma
  GI50: 4.28 µM
  TGI: 32.6 µM
NCI-H23 lung
  GI50: 3.71 µM
  TGI: 29.7 µM
EKVX NSCLC
  GI50: 15.7 µM
  TGI: 99.8 µM
SK-MEL-28 melanoma
  GI50: 14 µM
  TGI: > 100 µM
K-562 leukemia
  GI50: 3.28 µM
  TGI: > 100 µM
SN12C renal
  GI50: 28.5 µM
  TGI: > 100 µM
MDA-MB-468 breast
  GI50: 2.04 µM
  TGI: 8.09 µM
SK-MEL-2 melanoma
  GI50: 14.9 µM
  TGI: 62.9 µM
SNB-19 CNS
  GI50: 14.8 µM
  TGI: 66.9 µM
SW-620 colon
  GI50: 8.22 µM
  TGI: > 100 µM
HT29 colon
  GI50: 39.3 µM
  TGI: > 100 µM
RPMI-8226 leukemia
  GI50: 2.66 µM
  TGI: 17.5 µM
MOLT-4 leukemia
  GI50: 2.22 µM
  TGI: 5.97 µM
M14 melanoma
  GI50: 5.83 µM
  TGI: 63.1 µM
SNB-75 CNS
  GI50: 3.54 µM
  TGI: 62.7 µM
SR leukemia
  GI50: 6.04 µM
  TGI: > 100 µM
RXF 393 renal
  GI50: 15.7 µM
  TGI: 82.5 µM
KM12 colon
  GI50: 6.37 µM
  TGI: > 100 µM
A549 NSCLC
  GI50: 33.4 µM
  TGI: > 100 µM
